Earlier results as cited in patent US6689338B2, “Bioconjugates of nanoparticles as radiopharmaceuticals” (The Board of Regents for Oklahoma State University, priority 2000, dated 2004).

Test system: tumor
Settings: in vivo

## O=C([O-])CN(CCN(CC(=O)[O-])CC(=O)[O-])CCN(CC(=O)[O-])CC(=O)[O-].[111In+3].[H+].[H+]
  liver background: high liver background
